Our source for the IC50 values is US20260209180A1, “PROTEASE INHIBITORS FOR TREATING OR PREVENTING CORONAVIRUS INFECTION” (Merck Sharp & Dohme LLC, priority 2023, published 2026).

The structures appear in SMILES notation.

This experiment concerns the target SARS2 coronavirus 3CL protease (Severe acute respiratory syndrome coronavirus 2, UniProt P0DTD1). Put plainly: SARS2 Coronavirus 3CL Protease Assay (FRET). Type of experiment: biochemical. The settings on record: 5 nM protease pre-incubated with compound 30 minutes; 15 uM peptide substrate; 4 h room temperature; read-out: FRET Potency (nM); IC50 values in the SARS2 3CLPro FRET assay. Here is the method:
The enzymatic activity of SARS2 coronavirus 3CL protease was determined in a FRET (fluorescence resonance energy transfer)-based assay measuring the cleavage of a peptide substrate by recombinantly expressed and purified enzyme. Cleavage of the peptide SEQ ID NO: 1 (CPC Scientific) by SARS2 3CL protease was measured in reaction buffer (50 mM Hepes pH 7.5, 0.01% Triton X-100, 0.01% BSA, 2 mM DTT). […] Room temperature reactions (4 h) were quenched by addition of a high dose of inhibitor and read on an appropriate plate reader (excitation wavelength=495 nm, emission wavelength=520 nm). Data were analyzed by a standard 4 parameter fit to determine IC50 values.
In the case of `CNC(=O)C(=O)[C@H](CCC(C)(F)F)NC(=O)c1cc(Cl)cnc1NC(=O)c1cccc(C(F)(F)F)c1` [Example 21, 5-chloro-N-[(1S)-4,4-difluoro-1-[2-(methylamino)-2-oxo-acetyl]pentyl]-2-[[3-(trifluoromethyl)benzoyl]amino]pyridine-3-carboxamide], the IC50 came to 11.7 nM.
As for `CNC(=O)C(=O)[C@H](CCC(C)(F)F)NC(=O)c1cc(Cl)ccc1NC(=O)C12CC(C(F)(F)F)(C1)C2` [Example 22, N-[4-chloro-2-[[(1S)-4,4-difluoro-1-[2-(methylamino)-2-oxo-acetyl]pentyl]carbamoyl]phenyl]-3-(trifluoromethyl)bicyclo[1.1.1] pentane-1-carboxamide], the IC50 worked out at 13 nM.
The figure for `CNC(=O)C(=O)[C@H](CCC(C)(F)F)NC(=O)c1cc(Cl)ccc1NC(=O)[C@H]1CC1(F)F` [Example 23, 5-chloro-2-[[(1R)-2,2-difluorocyclopropanecarbonyl]amino]-N-[(1S)-4,4-difluoro-1-[2-(methylamino)-2-oxo-acetyl]pentyl]benzamide] is 13.2 nM; for `CNC(=O)C(=O)[C@H](CCC(C)(F)F)NC(=O)c1cc(Cl)cnc1NC(=O)c1cccc(F)c1` [Example 24, 5-chloro-N-[(1S)-4,4-difluoro-1-[2-(methylamino)-2-oxo-acetyl]pentyl]-2-[(3-fluorobenzoyl)amino]pyridine-3-carboxamide] it is 14 nM; for `CNC(=O)C(=O)[C@H](CCC(C)(F)F)NC(=O)c1cc(Cl)ccc1NC(=O)[C@@H]1CCc2nccc(=O)n21` [Example 25, (6S)-N-[4-chloro-2-[[(1S)-4,4-difluoro-1-[2-(methylamino)-2-oxo-acetyl]pentyl]carbamoyl]phenyl]-4-oxo-7,8-dihydro-6H-pyrrolo[1,2-a]pyrimidine-6-carboxamide] it is 14.8 nM.
The figure for `CNC(=O)C(=O)[C@H](CCC(C)(F)F)NC(=O)c1cc(Cl)ccc1NC(=O)C1CC12CCOCC2` (stereo partly drawn) [Example 26, N-[4-chloro-2-[[(1S)-4,4-difluoro-1-[2-(methylamino)-2-oxo-acetyl]pentyl]carbamoyl]phenyl]-6-oxaspiro[2.5]octane-2-carboxamide] is 15.1 nM.
The figure for `CC(F)(F)CC[C@H](NC(=O)c1cc(Cl)cnc1NC(=O)C12CC(C(F)(F)F)(C1)C2)C(=O)C(=O)NC1CC1` [Example 27, 5-chloro-N-[(1S)-1-[2-(cyclopropylamino)-2-oxo-acetyl]-4,4-difluoro-pentyl]-2-[[3-(trifluoromethyl)bicyclo[1.1.1]pentane-1-carbonyl]amino]pyridine-3-carboxamide] is 17.4 nM.
As for `CNC(=O)C(=O)[C@H](CCC(C)(F)F)NC(=O)c1cc(F)cnc1NC(=O)C1CC(F)(F)C1` [Example 28, 2-[(3,3-difluorocyclobutanecarbonyl)amino]-N-[(1S)-4,4-difluoro-1-[2-(methylamino)-2-oxo-acetyl]pentyl]-5-fluoro-pyridine-3-carboxamide], the IC50 worked out at 19.8 nM.
The figure for `CC(F)(F)CC[C@H](NC(=O)c1cc(Cl)cnc1NC(=O)c1cccc(F)c1)C(=O)C(=O)NC1CC1` [Example 29, 5-chloro-N-[(1S)-1-[2-(cyclopropylamino)-2-oxo-acetyl]-4,4-difluoro-pentyl]-2-[(3-fluorobenzoyl)amino]pyridine-3-carboxamide] is 20.4 nM; for `CNC(=O)C(=O)[C@H](CCC(C)(F)F)NC(=O)c1cc(Cl)ccc1NC(=O)C1CC1C(F)(F)F` (stereo partly drawn) [Example 30, 5-chloro-N-[(1S)-4,4-difluoro-1-[2-(methylamino)-2-oxo-acctyl]pentyl]-2-[[2-(trifluoromethyl)cyclopropane-carbonyl]amino]benzamide] it is 20.7 nM; for `CNC(=O)C(=O)[C@H](CCC(C)(F)F)NC(=O)c1cc(Cl)ccc1NC(=O)C1CC1C(F)(F)F` (stereo partly drawn) [Example 32, 5-chloro-N-[(1S)-4,4-difluoro-1-[2-(methylamino)-2-oxo-acetyl]pentyl]-2-[[2-(trifluoromethyl)cyclopropane-carbonyl]amino]benzamide] it is 21.3 nM.
`CNC(=O)C(=O)[C@H](CCC(C)(F)F)NC(=O)c1cc(F)cnc1NC(=O)c1cccc(F)c1` [Example 34, N-[(1S)-4,4-difluoro-1-[2-(methylamino)-2-oxo-acetyl]pentyl]-5-fluoro-2-[(3-fluorobenzoyl)amino]pyridine-3-carboxamide]: the IC50 is 23.8 nM.
With `CNC(=O)C(=O)[C@H](CCC(C)(F)F)NC(=O)c1cc(F)cnc1NC(=O)C12CC(F)(C1)C2` [Example 35, N-[(1S)-4,4-difluoro-1-[2-(methylamino)-2-oxo-acetyl]pentyl]-5-fluoro-2-[(3-fluorobicyclo[1.1.1]pentane-1-carbonyl)amino]pyridine-3-carboxamide], the IC50 worked out at 23.9 nM.
For `CNC(=O)C(=O)[C@H](CCC(C)(F)F)NC(=O)c1cc(Cl)cnc1NC(=O)C1(C(F)(F)F)CC1` [Example 36, 5-chloro-N-[(1S)-4,4-difluoro-1-[2-(methylamino)-2-oxo-acetyl]pentyl]-2-[[1-(trifluoromethyl)cyclopropane-carbonyl]amino]pyridine-3-carboxamide], the IC50 was 24.4 nM.
Under `CNC(=O)C(=O)[C@H](CCC(C)(F)F)NC(=O)c1cc(C#N)ccc1NC(=O)C12CC(C(F)(F)F)(C1)C2` [Example 37, N-[4-cyano-2-[[(1S)-4,4-difluoro-1-[2-(methylamino)-2-oxo-acetyl]pentyl]carbamoyl]phenyl]-3-(trifluoromethyl)bicyclo[1.1.1] pentane-1-carboxamide] stands 31.1 nM.
As for `CNC(=O)C(=O)[C@H](CCC(C)(F)F)NC(=O)c1cc(Cl)cnc1NC(=O)C12CC(F)(C1)C2` [Example 38, 5-chloro-N-[(1S)-4,4-difluoro-1-[2-(methylamino)-2-oxo-acetyl]pentyl]-2-[(3-fluorobicyclo[1.1.1]pentane-1-carbonyl)amino]pyridine-3-carboxamide], the IC50 was determined as 40.4 nM.
For `CC(F)(F)CC[C@H](NC(=O)c1cc(C(F)(F)F)cnc1NC(=O)c1cccc(C(F)(F)F)c1)C(=O)C(=O)NC1CC1` [Example 39, N-[(1S)-1-[2-(cyclopropylamino)-2-oxo-acetyl]-4,4-difluoro-pentyl]-5-(trifluoromethyl)-2-[[3-(trifluoromethyl)benzoyl]amino]pyridine-3-carboxamide], the IC50 was 40.9 nM.
Take `CC(F)(F)CC[C@H](NC(=O)c1cc(F)cnc1NC(=O)c1cccc(F)c1)C(=O)C(=O)NC1CC1` [Example 40, N-[(1S)-1-[2-(cyclopropylamino)-2-oxo-acetyl]-4,4-difluoro-pentyl]-5-fluoro-2-[(3-fluorobenzoyl)amino]pyridine-3-carboxamide]: the IC50 worked out at 41.6 nM.
Under `CNC(=O)C(=O)[C@H](CCC(C)(F)F)NC(=O)c1cc(C#N)ccc1NC(=O)c1cccc(F)c1` [Example 41, 5-cyano-N-[(1S)-4,4-difluoro-1-[2-(methylamino)-2-oxo-acetyl]pentyl]-2-[(3-fluorobenzoyl)amino]benzamide] stands 45.3 nM.
The figure for `CNC(=O)C(=O)[C@H](CCC(C)(F)F)NC(=O)c1cc(F)ccc1NC(=O)C1(C(F)(F)F)CC1` [Example 42, N-[(1S)-4,4-difluoro-1-[2-(methylamino)-2-oxo-acetyl]pentyl]-5-fluoro-2-[[1-(trifluoromethyl)cyclopropane-carbonyl]amino]benzamide] is 47 nM.
Turning to `CNC(=O)C(=O)[C@H](CCC(C)(F)F)NC(=O)c1cc(F)cnc1NC(=O)C(C)(C)C` [Example 43, N-[(1S)-4,4-difluoro-1-[2-(methylamino)-2-oxo-acetyl]pentyl]-2-(2,2-dimethylpropanoylamino)-5-fluoro-pyridine-3-carboxamide], the IC50 is 49.6 nM.
In the case of `CC(F)(F)CC[C@H](NC(=O)c1cc(Cl)cnc1NC(=O)C1(C(F)(F)F)CC1)C(=O)C(=O)NC1CC1` [Example 44, 5-chloro-N-[(1S)-1-[2-(cyclopropylamino)-2-oxo-acetyl]-4,4-difluoro-pentyl]-2-[[1-(trifluoromethyl)cyclopropane-carbonyl]amino]pyridine-3-carboxamide], the IC50 was found to be 50.4 nM.
The figure for `Cc1cnc(NC(=O)c2cccc(C(F)(F)F)c2)c(C(=O)N[C@@H](CCC(C)(F)F)C(=O)C(=O)NC2CC2)c1` [Example 45, N-[(1S)-1-[2-(cyclopropylamino)-2-oxo-acetyl]-4,4-difluoro-pentyl]-5-methyl-2-[[3-(trifluoromethyl)benzoyl]amino]pyridine-3-carboxamide] is 76.2 nM; for `CC(F)(F)CC[C@H](NC(=O)c1cc(F)cnc1NC(=O)C(C)(C)C)C(=O)C(=O)NC1CC1` [Example 46, N-[(1S)-1-[2-(cyclopropylamino)-2-oxo-acetyl]-4,4-difluoro-pentyl]-2-(2,2-dimethylpropanoylamino)-5-fluoro-pyridine-3-carboxamide] it is 94.8 nM.
Take `CNC(=O)C(=O)[C@H](CCC(C)(F)F)NC(=O)c1cc(Cl)ccc1NC(=O)C1CC1C(F)(F)F` (stereo partly drawn) [Example 47, 5-chloro-N-[(1S)-4,4-difluoro-1-[2-(methylamino)-2-oxo-acetyl]pentyl]-2-[[2-(trifluoromethyl)cyclopropane-carbonyl]amino]benzamide]: the IC50 came to 20.5 nM.
In the case of `CNC(=O)C(=O)[C@H](CCC(C)(F)F)NC(=O)c1cc(Cl)ccc1NC(=O)C1CC1C(F)(F)F` (stereo partly drawn) [Example 48, 5-chloro-N-[(1S)-4,4-difluoro-1-[2-(methylamino)-2-oxo-acetyl]pentyl]-2-[[2-(trifluoromethyl)cyclopropane-carbonyl]amino]benzamide], the IC50 turned out to be 11.3 nM.
